According to patent US20060173048A1, “Imidazole derivatives” (priority 2005, published 2006):

Compound	melting point [°C]
CCn1c(-c2c(C)cccc2Cl)nc(-c2ccncc2)c1-c1ccc(Cl)cc1 [Example 17, 4-[2-(2-Chloro-6-methyl-phenyl)-5-(4-chloro-phenyl)-1-ethyl-1H-imidazol-4-yl]-pyridine]	188 to 190
CCn1c(-c2ccccc2Br)nc(-c2ccncc2)c1-c1ccc(Cl)cc1 [Example 16, 4-[2-(2-Bromo-phenyl)-5-(4-chloro-phenyl)-1-ethyl-1H-imidazol-4-yl]-pyridine]	144 to 147
C=CCn1c(-c2c(C)cc(C)cc2C)nc(-c2ccncc2)c1-c1ccc(C(F)(F)F)cc1 [Example 20, 4-[1-Allyl-5-(4-trifluoromethyl-phenyl)-2-(2,4,6-trimethyl-phenyl)-1H-imidazol-4-yl]-pyridine]	209 to 210
OCCCn1c(-c2c(Cl)cccc2Cl)nc(-c2ccncc2)c1-c1ccc(Cl)cc1 [Example 29, 3-[5-(4-Chloro-phenyl)-2-(2,6-dichloro-phenyl)-4-pyridin-4-yl-imidazol-1-yl]-propan-1-ol]	233 to 235
CCn1c(C(c2ccccc2)c2ccccc2)nc(-c2ccncc2)c1-c1ccc(Cl)cc1 [Example 39, 4-[2-Benzhydryl-5-(4-chloro-phenyl)-1-ethyl-1H-imidazol-4-yl]-pyridine]	199 to 200
CCn1c(-c2c(C)cc(C)cc2C)nc(-c2ccncc2)c1-c1ccc(Cl)cc1Cl [Example 6, 4-[1-Ethyl-5-(2,4-dichloro-phenyl)-2-(2,4,6-trimethyl-phenyl)-1H-imidazol-4-yl]-pyridine]	191 to 193
CCn1c(-c2c(C)cc(C)cc2C)nc(-c2ccncc2)c1-c1ccc(C(C)(C)C)cc1 [Example 7, 4-[5-(4-tert-Butyl-phenyl)-1-ethyl-2-(2,4,6-trimethyl-phenyl)-1H-imidazol-4-yl]-pyridine]	202 to 205
CCC(CC)c1nc(-c2ccncc2)c(-c2ccc(Cl)cc2)n1C [Example 36, 4-[5-(4-Chloro-phenyl)-2-(1-ethyl-propyl)-1-methyl-1H-imidazol-4-yl]-pyridine]	100 to 102
CCCn1c(-c2c(Cl)cccc2Cl)nc(-c2ccncc2)c1-c1ccc(C)cc1 [Example 50, 4-[2-(2,6-Dichloro-phenyl)-1-propyl-5-(4-methyl-phenyl)-1H-imidazol-4-yl]-pyridine]	200 to 201
CCn1c(-c2c(Cl)cccc2Cl)nc(-c2ccnc(Cl)c2)c1-c1ccc(Cl)cc1 [Example 54, 2-Chloro-4-[5-(4-chloro-phenyl)-2-(2,6-dichloro-phenyl)-1-ethyl-1H-imidazol-4-yl]-pyridine]	187 to 189
CCn1c(C(O)(Cc2ccccc2)Cc2ccccc2)nc(-c2ccncc2)c1-c1ccc(Cl)cc1 [Example 48, 2-[5-(4-Chloro-phenyl)-1-ethyl-4-pyridin-4-yl-1H-imidazol-2-yl]-1,3-diphenyl-propan-2-ol]	116 to 117
CCn1c(C(OCCO)(c2cccc(C(F)(F)F)c2)c2cccc(C(F)(F)F)c2)nc(-c2ccncc2)c1-c1ccc(Cl)cc1 [Example 52, 2-[[5-(4-Chloro-phenyl)-1-ethyl-4-pyridin-4-yl-1H-imidazol-2-yl]-bis-(3-trifluoromethyl-phenyl)-methoxy]-ethanol]	222 to 223
CCn1c(-c2c(Cl)cccc2Cl)nc(-c2ccnc(OC)c2)c1-c1ccc(Cl)cc1 [Example 55, 4-[5-(4-Chloro-phenyl)-2-(2,6-dichloro-phenyl)-1-ethyl-1H-imidazol-4-yl]-2-methoxy-pyridine]	138 to 140
CCn1c(C(c2cccc(F)c2)c2cccc(F)c2)nc(-c2ccncc2)c1-c1ccc(Cl)cc1 [Example 53, 4-[2-[Bis-(3-fluoro-phenyl)-methyl]-5-(4-chloro-phenyl)-1-ethyl-1H-imidazol-4-yl]-pyridine]	184 to 186
CCn1c(-c2c(C)cccc2C)nc(-c2ccncc2)c1-c1ccc(Cl)cc1 [Example 14, 4-[5-(4-Chloro-phenyl)-2-(2,6-dimethyl-phenyl)-1-ethyl-1H-imidazol-4-yl]-pyridine]	171 to 173
CCn1c(-c2c(Cl)cccc2Cl)nc(-c2ccncc2)c1-c1ccc(Cl)cc1 [Example 5, 4-[5-(4-Chloro-phenyl)-2-(2,6-dichloro-phenyl)-1-ethyl-1H-imidazol-4-yl]-pyridine]	193 to 196
CCn1c(-c2ccnc3ccccc23)nc(-c2ccncc2)c1-c1ccc(Cl)cc1 [Example 32, 4-[5-(4-Chloro-phenyl)-1-ethyl-4-pyridin-4-yl-1H-imidazol-2-yl]-quinoline]	167 to 169
Cc1ccc(-c2c(-c3ccncc3)nc(-c3c(Cl)cccc3Cl)n2C)cc1 [Example 1, 4-[2-(2,6-Dichloro-phenyl)-1-methyl-5-(4-methyl-phenyl)-1H-imidazol-4-yl]-pyridine]	214 to 217
FC(F)(F)Cn1c(-c2c(Cl)cccc2Cl)nc(-c2ccncc2)c1-c1ccc(Cl)cc1 [Example 25, 4-[5-(4-Chloro-phenyl)-2-(2,6-dichloro-phenyl)-1-(2,2,2-trifluoro-ethyl)-1H-imidazol-4-yl]-pyridine]	213 to 214
CCn1c(C(O)(c2cccc(C(F)(F)F)c2)c2cccc(C(F)(F)F)c2)nc(-c2ccncc2)c1-c1ccc(Cl)cc1 [Example 45, [5-(4-Chloro-phenyl)-1-ethyl-4-pyridin-4-yl-1H-imidazol-2-yl]-bis-(3-trifluoromethyl-phenyl)-methanol]	193 to 195
CCn1c(-c2ccccc2)nc(-c2ccncc2)c1-c1ccc(Cl)cc1 [Example 9, 4-[5-(4-Chloro-phenyl)-1-ethyl-2-phenyl-1H-imidazol-4-yl]-pyridine]	267 to 270
CCn1c(-c2cc3ccccc3[nH]2)nc(-c2ccncc2)c1-c1ccc(Cl)cc1 [Example 33, 2-[5-(4-Chloro-phenyl)-1-ethyl-4-pyridin-4-yl-1H-imidazol-2-yl]-1H-indole]	279 to 280
C=CCn1c(-c2c(C)cc(C)cc2C)nc(-c2ccncc2)c1-c1ccc(Cl)cc1 [Example 21, 4-[1-Allyl-5-(4-chloro-phenyl)-2-(2,4,6-trimethyl-phenyl)-1H-imidazol-4-yl]-pyridine]	151 to 154
CCn1c(-c2ccc(C(F)(F)F)cc2C(F)(F)F)nc(-c2ccncc2)c1-c1ccc(Cl)cc1 [Example 30, 4-[2-(2,4-Bis-trifluoromethyl-phenyl)-5-(4-chloro-phenyl)-1-ethyl-1H-imidazol-4-yl]-pyridine]	148 to 150
CCn1c(-c2c(C)cc(C)cc2C)nc(-c2ccncc2)c1-c1ccc(Cl)cc1 [Example 12, 4-[5-(4-Chloro-phenyl)-1-ethyl-2-(2,4,6-trimethyl-phenyl)-1H-imidazol-4-yl]-pyridine]	226 to 227
CCCn1c(-c2c(C)cc(C)cc2C)nc(-c2ccncc2)c1-c1ccc(C)cc1 [Example 51, 4-[1-Propyl-5-(4-methyl-phenyl)-2-(2,4,6-trimethyl-phenyl)-1H-imidazol-4-yl]-pyridine]	134 to 136
CCn1c(C(O)(c2ccccc2)c2ccccc2)nc(-c2ccncc2)c1-c1ccc(Cl)cc1 [Example 44, [5-(4-Chloro-phenyl)-1-ethyl-4-pyridin-4-yl-1H-imidazol-2-yl]-diphenyl-methanol]	222 to 223
